Measurements taken from BigSolDB 2.1.

c1ccc(-n2c3ccccc3c3ccccc32)cc1
solubility (mole fraction)
Conditions	278.15 K	283.15 K	288.15 K	293.15 K	298.15 K	303.15 K	308.15 K	313.15 K
in 1,4-dioxane	–	–	0.124	0.213	0.292	0.417	0.514	0.717
in THF	0.249	0.274	0.309	0.346	0.386	0.439	0.497	0.562
in acetonitrile	0.00383	0.00413	0.00487	0.00582	0.00624	0.00735	0.00826	0.0102
in chloroform	0.237	0.262	0.322	0.399	0.461	0.555	0.651	0.753
in cyclohexane	–	0.034	0.0421	0.0523	0.0691	0.0815	0.101	0.132
in dichloromethane	0.223	0.246	0.311	0.385	0.453	0.548	0.644	–
in ethanol	0.00099	0.00167	0.00218	0.00271	0.00334	0.0042	0.00574	0.007
in isopropanol	0.001	0.00131	0.00215	0.00244	0.00303	0.004	0.00458	0.00591
in methanol	6.96e-05	0.00011	0.000178	0.000208	0.000251	0.000296	0.000427	0.00055
in n-butanol	0.00207	0.00219	0.00266	0.00333	0.00403	0.00468	0.00691	0.00919
in n-hexane	0.0355	0.0378	0.0431	0.0494	0.0552	0.0624	0.0703	0.078
in n-propanol	0.00298	0.00323	0.00412	0.00517	0.0061	0.00749	0.00936	0.0116
